Results on 24 molecules are retold here after patent US20240150356A1, “Pyrimidine amide compounds and use thereof” (ALPHALA CO., LTD., priority 2019, published 2024).

The first test relates to Hep3B cells (hepatocellular carcinoma cell line). Description: In vitro MTS cell viability assay (NCI-60 methodology), Hep3B. It counts as cell-based. The conditions noted are these: Homo sapiens, 48 h, Table 3, MTS, 2 days drug incubation, 50% reduction vs time zero, read-out: Hep3B LC50. The protocol:
The cell viability measurement is based on the NCI-60 screening methodology (Nat. Rev. Cancer 6, 813-823, 2006). Briefly, cells are inoculated into 96-well plates at the optimal plating density. After 24 h, one of the two plates for Hep3B cell line is processed to determine a time zero cell viability (Tz) by MTS assay (Promega). Compounds are added over a 2-fold serial dilution to provide a total five drug concentrations plus DMSO control. Plates are incubated for a further 2 days, then measured cell viability by MTS assay [control growth (C) and test growth in the presence of drug at the five concentration levels (Ti)]. The LC50 is calculated from [(Ti−Tz)/Tz]×100=−50, which is the drug concentration resulting in a 50% reduction at the end of the drug treatment as compared to that at the beginning.
The compounds prepared in Tables 1-10 were tested in three in vitro assays, and the results are shown in Tables 1-10 for Hep3B and Table 11 for SW480 and NCI-H460 shown below. Herein, Hep3B refers to hepatocellular carcinoma cell line, SW480 refers to colon adenocarcinoma cell line, and NCI-H460 refers to human lung cancer cell line.
Shown in following Tables 1 to 10 are the structures and in vitro activities of exemplary compounds of formula (I).
For `Cc1nn(C)c2c(NC(=O)c3ccc([N+](=O)[O-])s3)nc(-c3cccc(OC(F)(F)F)c3)nc12` [Compound 3-4, N-(1,3-dimethyl-5-(3-(trifluoromethoxy)phenyl)-1H-pyrazolo[4,3-d]pyrimidin-7-yl)-5-nitrothiophene-2-carboxamide], the median lethal concentration (LC50) came to 1510 nM.

For the molecule `Cn1cc2nc(-c3ccc(C(C)(C)C)cc3)nc(NC(=O)c3ccc([N+](=O)[O-])s3)c2c1` [Compound 3-10, N-(2-(4-(tert-butyl)phenyl)4-methyl-6H-pyrrolo[3,4,d]pyrimidin-4-yl)-5-nitrothiophene-2-carboxamide], the LC50 was 10000 nM.

Turning to `CCn1cc2nc(-c3ccc(C(C)(C)C)cc3)nc(NC(=O)c3ccc([N+](=O)[O-])s3)c2c1` [Compound 3-11, N-(2-(4-(tert-butyl)phenyl)-6-ethyl-6H-pyrrolo[3,4-d]pyrimidin-4-yl)-5-nitrothiophene-2-carboxamide], the 50% lethal concentration (LC50) worked out at 7640 nM.

Turning to `CC(C)n1cc2nc(-c3ccc(C(C)(C)C)cc3)nc(NC(=O)c3ccc([N+](=O)[O-])s3)c2c1` [Compound 3-12, N-(2-(4-(tert-butyl)phenyl)-6-isopropyl-6H-pyrrolo[3,4-d]pyrimidin-4-yl)-5-nitrothiophene-2-carboxamide], the median lethal concentration (LC50) is above 10000 nM.

Staying with this test, now noted: Homo sapiens, 48 h, Table 4, MTS, 2 days drug incubation, 50% reduction vs time zero, read-out: Hep3B LC50.
For `Cc1csc2c(NC(=O)c3ccc([N+](=O)[O-])s3)nc(-c3ccc(C(C)(C)C)cc3)nc12` [Compound 4-1], the LC50 worked out at 1150 nM.

For the molecule `Cc1csc2c(NC(=O)c3ccc([N+](=O)[O-])s3)nc(-c3cccc(C(F)(F)F)c3)nc12` [Compound 4-3, N-(7-methyl-2-(3-(trifluoromethyl)phenyl)thieno[3,2-1]pyrimidin-4-yl)-5-nitrothiophene-2-carboxamide], the LC50 is 880 nM.

Regarding `Cc1csc2c(NC(=O)c3ccc([N+](=O)[O-])s3)nc(-c3ccc(OC(F)(F)F)cc3)nc12` [Compound 4-4, N-(7-methyl-2-(4-(trifluoromethoxy)phenyl)thieno[3,2-d]pyrimidin-4-yl)-5-nitrothiophene-2-carboxamide], the median lethal concentration (LC50) stood at 890 nM.

Consider `Cc1csc2c(NC(=O)c3ccc([N+](=O)[O-])s3)nc(-c3cc(C(F)(F)F)cc(C(F)(F)F)c3)nc12` [Compound 4-6, N-(2-(3,5-bis(trifluoromethyl)phenyl)-7-methylthieno[3,2-d]pyrimidin-4-yl)-5-nitrothiophene-2-carboxamide], for which the LC50 came out at 420 nM.

Take `Cc1csc2c(NC(=O)c3ccc([N+](=O)[O-])s3)nc(-c3cccc(F)c3)nc12` [Compound 4-7, N-(2-(3-fluorophenyl)-7-methylthieno[3,2-d]pyrimidin-4-yl)-5-nitrothiophene-2-carboxamide]: the LC50 was 1280 nM.

In the case of `Cc1csc2c(NC(=O)c3ccc([N+](=O)[O-])s3)nc(-c3ccc(F)cc3)nc12` [Compound 4-8], the 50% lethal concentration (LC50) is 1700 nM.

Turning to `Cc1csc2c(NC(=O)c3ccc([N+](=O)[O-])s3)nc(-c3cc(F)c(F)c(F)c3)nc12` [Compound 4-9, N-(7-methyl-2-(3,4,5-trifluorophenyl)thieno[3,2-d]pyrimidin-4-yl)-5-nitrothiophene-2-carboxamide], the 50% lethal concentration (LC50) was above 10000 nM.

For the molecule `Cc1csc2c(NC(=O)c3ccc([N+](=O)[O-])s3)nc(-c3ccc(N(C)C)cc3)nc12` [Compound 4-10, N-(2-(4-(dimethylamino)phenyl)-7-methylthieno[3,2-d]pyrimidin-4-yl)-5-nitrothiophene-2-carboxamide], the 50% lethal concentration (LC50) was above 10000 nM.

Regarding `Cc1csc2c(NC(=O)c3ccc([N+](=O)[O-])s3)nc(N3CCC(F)(F)C3)nc12` [Compound 4-11, N-(2-(3,3-difluoropyrrolidin-1-yl)-7-methylthieno[3,2-d]pyrimidin-4-yl)-5-nitrothiophene-2-carboxamide], the LC50 came to 3180 nM.

With `Cc1csc2c(NC(=O)c3ccc([N+](=O)[O-])s3)nc(Oc3ccc(C(C)(C)C)cc3)nc12` [Compound 4-12, N-(2-(4-(tert-butyl)phenoxy)-7-methylthieno[3,2-d]pyrimidin-4-yl)-5-nitrothiophene-2-carboxamide], the 50% lethal concentration (LC50) amounted to 1340 nM.

Consider `Cc1csc2c(NC(=O)c3ccc([N+](=O)[O-])s3)nc(-c3cc(C(F)(F)F)ccc3F)nc12` [Compound 4-13, N-(2-(2-fluoro-5-(trifluoromethyl)phenyl)-7-methylthieno[3,2-d]pyrimidin-4-yl)-5-nitrothiophene-2-carboxamide], for which the LC50 amounted to 1700 nM.

Turning to `Cc1csc2c(NC(=O)c3ccc([N+](=O)[O-])s3)nc(-c3ccc(C(F)(F)F)cc3F)nc12` [Compound 4-14, N-(2-(2-fluoro-4-(trifluoromethyl)phenyl)-7-methylthieno[3,2-d]pyrimidin-4-yl)-5-nitrothiophene-2-carboxamide], the LC50 was 1350 nM.

As for `O=C(Nc1nc(-c2ccc(F)cc2)nc2c(-c3ccccc3)csc12)c1ccc([N+](=O)[O-])s1` [Compound 4-15, N-(2-(4-fluorophenyl)-7-phenylthieno[3,2-d]pyrimidin-4-yl)-5-nitrothiophene-2-carboxamide], the 50% lethal concentration (LC50) came to 620 nM.

Consider `O=C(Nc1nc(-c2ccc(Cl)c(F)c2)nc2c(-c3ccccc3)csc12)c1ccc([N+](=O)[O-])s1` [Compound 4-16, N-(2-(4-chloro-3-fluorophenyl)-7-phenylthieno[3,2-d]pyrimidin-4-yl)-5-nitrothiophene-2-carboxamide], for which the LC50 stood at 560 nM.

For the molecule `O=C(Nc1nc(-c2cc(C(F)(F)F)ccc2F)nc2c(-c3ccccc3)csc12)c1ccc([N+](=O)[O-])s1` [Compound 4-17, N-(2-(2-fluoro-5-(trifluoromethyl)phenyl)-7-phenylthieno[3,2-d]pyrimidin-4-yl)-5-nitrothiophene-2-carboxamide], the LC50 is 860 nM.

For `O=C(Nc1nc(-c2ccc(F)cc2)nc2c(-c3cccc(F)c3)csc12)c1ccc([N+](=O)[O-])s1` [Compound 4-18, N-(7-(3-fluorophenyl)-2-(4-fluorophenyl)thieno[3,2-d]pyrimidin-4-yl)-5-nitrothiophene-2-carboxamide], the median lethal concentration (LC50) amounted to 490 nM.

As for `CC(C)(C)c1ccc(-c2csc3c(NC(=O)c4ccc([N+](=O)[O-])s4)nc(-c4ccc(F)cc4)nc23)cc1` [Compound 4-19, N-(7-(4-(tert-butyl)phenyl)-2-(4-fluorophenyl)thieno[3,2-d]pyrimidin-4-yl)-5-nitrothiophene-2-carboxamide], the 50% lethal concentration (LC50) turned out to be 670 nM.

Consider `CC(C)(C)OC(=O)N1CCC(n2cnc3c(NC(=O)c4ccc([N+](=O)[O-])s4)nc(-c4ccc(F)cc4)nc32)CC1` [Compound 4-20, tert-butyl 4-(2-(4-fluorophenyl)-6-(5-nitrothiophene-2-carboxamide)-9H-purin-9-yl) piperidine-1-carboxylate], for which the median lethal concentration (LC50) was above 1250 nM.

Staying with this test, now noted: Homo sapiens, 48 h, Table 5, MTS, 2 days drug incubation, 50% reduction vs time zero, read-out: Hep3B LC50.
For `O=C(Nc1nc(C2CCNCC2)nc2c1cnn2-c1ccccc1)c1ccc([N+](=O)[O-])s1` [Compound 5-1, 5-nitro-N-(1-phenyl-6-(piperidin-4-yl)-1H-pyrazolo[3,4-d]pyrimidin-4-yl)thiophene-2-carboxamide], the median lethal concentration (LC50) was above 5000 nM.

With `C=CC(=O)N1CCC(c2nc(NC(=O)c3ccc([N+](=O)[O-])s3)c3cnn(-c4ccccc4)c3n2)CC1` [Compound 5-2, N-(6-(1-acryloylpiperidin-4-yl)-1-phenyl-1H-pyrazolo[3,4-d]pyrimidin-4-yl)-5-nitrothiophene-2-carboxamide], the median lethal concentration (LC50) is 2470 nM.

For orientation: LC50 means the concentration lethal to half of the exposed cells or organisms.
